The record followed here is PubChem BioAssay (NCI).

Assay in all cases: NCI-60 cell line screen, 48 h
In experiment [1] the test system is M14 melanoma.
For experiment [2], the system named is NCI-H460 lung.
In experiment [3] the test system is DU-145 prostate.
Experiment [4] relates to LOX IMVI melanoma.
Experiment [5] deals with UO-31 renal.
The test system of experiment [6] is OVCAR-5 ovarian.
In experiment [7] the test system is NCI/ADR-RES ovarian.
Experiment [8] concerns HS 578T breast.
In experiment [9] the test system is CCRF-CEM leukemia.
The test system of experiment [10] is SNB-19 CNS.
Experiment [11] has as its system NCI-H226 lung.

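Five concentrations, 48 hours, 96-well plates. Abbreviation: GI50, concentration required for 50% inhibition of growth. TGI marks complete inhibition of growth.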

For `CN1CC2=C(NC(=S)NC2c2ccc(Cl)cc2)/C(=C/c2ccc(Cl)cc2)C1` (stereo not given), the TGI is 33.6 µM in experiment [1]; 28.1 µM in experiment [2]; 30.5 µM in experiment [3]; 35.8 µM in experiment [4]; more than 100 µM in [5]; 31.4 µM in experiment [6]. For the same molecule, the TGI in experiment [7] turned out to be 43.6 µM; in experiment [8] it was 40.3 µM; in experiment [9], 30.9 µM.

As for `CC1(C)[C@@H]2C[C@H]1C(Cc1ccc(C[C@H]3c4cc(-c5ccccn5)ncc4[C@H]4C[C@@H]3C4(C)C)cc1)c1cc(-c3ccccn3)ncc12` (stereo not given in full), the TGI is more than 100 µM in [1]; 13.8 µM in experiment [2]; more than 100 µM in experiment [3]; 7.55 µM in experiment [4]; 4.91 µM in experiment [5]; more than 100 µM in experiment [10]. Also, the TGI is more than 100 µM in [6], 22.2 µM in experiment [7] and more than 100 µM in experiment [8].

Take `CO/C(=N\N=C\c1ccc(OC)cc1OC)c1ccncc1`: the TGI in experiment [2], in [4], in [5], in experiment [11], in [10] and in experiment [6] was more than 10 µM in each case. For the same molecule, the TGI in [7] and in experiment [9] was more than 10 µM throughout.

For the molecule `COc1cccc(-c2cccc(SC)n2)n1`, the TGI in experiment [1] is more than 100 µM; in experiment [2], more than 100 µM; in experiment [3], more than 100 µM; in [4], more than 100 µM; in [5], more than 100 µM; in experiment [11], 31.6 µM. The TGI in experiment [10] is more than 100 µM; in [6], more than 100 µM; in experiment [7], more than 100 µM; in experiment [9], 41.5 µM.

As to `CO[C@@](c1ccccc1)(c1nc(C#N)c(N)o1)C(F)(F)F`, the TGI in experiment [1], in experiment [3], in [4], in experiment [5], in experiment [11] and in [10] was more than 100 µM each time. In addition, the values for the TGI in experiment [7] and in [9] were more than 100 µM and 74.7 µM, respectively.

Consider `COc1ccc(-n2c3c(c4cc(O)ccc42)C(=O)c2ccccc2C3=O)cc1`, for which the TGI is more than 100 µM in [1]; more than 100 µM in experiment [2]; more than 100 µM in [3]; 58 µM in [4]; more than 100 µM in experiment [5]; more than 100 µM in experiment [10]. Besides, the TGI in experiment [6] was more than 100 µM; in [7] it was 24.9 µM; in experiment [8], more than 100 µM.

For the molecule `O=C1Nc2ccccc2[C@]12C[C@H]2c1ccccn1`, the TGI in experiment [1], in experiment [2], in experiment [3], in experiment [4], in [5] and in experiment [11] was more than 100 µM each time. Moreover, the TGI in [10], in experiment [6], in experiment [7] and in experiment [9] was more than 100 µM in each case.

As to `CCCC(=O)N/S(=N/S(=O)(=O)c1ccc(Cl)cc1)C(Cl)(Cl)Cl` (stereo not given), the TGI in experiment [1], in experiment [2], in [3], in [5], in experiment [11] and in experiment [10] was more than 100 µM throughout. Also, the TGI in experiment [6], in [7], in experiment [8] and in experiment [9] was more than 100 µM each time.

Take `Nc1nc(Cl)cc(NCC2(CO)CCC2)n1`: the TGI in experiment [2], in [3], in experiment [4], in experiment [5], in [11] and in experiment [10] was more than 100 µM throughout. Besides, the TGI in experiment [6], in [7], in experiment [8] and in experiment [9] was more than 100 µM throughout.

`CCOC(=O)c1nnsc1NC(=O)Nc1ccc(Cl)cc1`: the TGI in experiment [1] is more than 100 µM; in experiment [2] it was 32.1 µM; in experiment [3], more than 100 µM; in [5], more than 100 µM; in experiment [11], more than 100 µM; in [10], more than 100 µM. The TGI was more than 100 µM in experiment [6], 72.5 µM in experiment [7], more than 100 µM in [8] and more than 100 µM in experiment [9].

In the case of `COc1ccc(CNc2nc(NCc3ccc(OC)cc3)nc(NC(C)C)n2)cc1`, the TGI was 16.7 µM in [1]; 17 µM in experiment [2]; 66 µM in experiment [3]; 30.9 µM in [4]; more than 100 µM in experiment [5]; more than 100 µM in experiment [10]. Further, the TGI is 81.9 µM in experiment [6], 18.9 µM in experiment [7] and more than 100 µM in [8].

Regarding `C[C@@H]1CC[C@H]2C(COC/C=C/COCC3=C(C(F)(F)F)O[C@@H]4O[C@@]5(C)CC[C@H]6[C@H](C)CC[C@@H]3[C@@]46OO5)=C(C(F)(F)F)O[C@@H]3O[C@@]4(C)CC[C@@H]1[C@]32OO4`, the TGI in experiment [1] was more than 100 µM; in [2], more than 100 µM; in experiment [3], more than 100 µM; in experiment [5], more than 100 µM; in experiment [11], 0.191 µM; in experiment [10], more than 100 µM. The TGI is more than 100 µM in [6], more than 71.3 µM in [7], more than 100 µM in [8] and more than 38.4 µM in [9]. For the same molecule, the GI50 was 0.0226 µM in [2]; 0.531 µM in [3]; 0.786 µM in [5]; 0.0199 µM in experiment [11]; 0.542 µM in experiment [10]; 0.0175 µM in experiment [6]. For the same molecule, the GI50 in [7] is 3.14 µM; in experiment [8] it was 0.0429 µM; in experiment [9], 0.0148 µM.

For the molecule `CC(=N/NC(=S)Nc1c(C)n(C)n(-c2ccccc2)c1=O)/C(C)=N\NC(=S)Nc1c(C)n(C)n(-c2ccccc2)c1=O`, the TGI in [1], in [2], in experiment [3], in experiment [5], in experiment [11] and in [10] was more than 100 µM each time. Further, the TGI in experiment [6], in experiment [7] and in experiment [8] was more than 100 µM throughout.
